Reference: patent publication US20140120088A1, “AGENTS FOR THE TREATMENT OF TUMORS” (Assistance Publique-Hopitaux de Paris, priority 2011, published 2014)

System: high-grade glioma with subarachnoid extension
Assay: treatment of patients with high-grade glioma with subarachnoid extension
Assay type: in vivo, human
Details: responding patients; before the combined treatment, under bevacizumab alone, or when intrathecal CpG was resumed
Procedure: Four patients had high-grade glioma with subarachnoid extension. The treatment protocol of patients was as follows:
Subcutaneous injection of 0.3 mg/kg of CpG-ODN at D0, D7, D14, D21 et D28 (capped at 25 mg per injection, for patients>83 kg)
Intrathecal administration of CpG-ODN (7 mg) (in the cerebrospinal fluid) three times, with a two-week interval between each injection (D0, D14 and D28). (In 2 patients, the intrathecal injections were continued every 2 to 4 weeks for several months). (Other intrathecal injections of larger amounts of CpG-ODN (14 mg or 17 mg), again in three steps with a two weeks interval between each injection are currently tested, in other patients in a clinical trial.)
Intravenous perfusions of Avastin from 5 to 10 mg/kg every 2 weeks, started, depending on the cases, before, during or after the beginning of CpG-ODN.

| Substance | clinical outcome under single agent or on resuming the combination |
| --- | --- |
| 5′-TAAACGTTATAACGTTATGACGTCAT-3′ [CpG] | only a slight improvement |
| Bevacizumab: monoclonal antibody directed against VEGF, marketed by Roche under the name of Avastin | progression |
